Results published in patent US20250269039A1, “THERAPEUTIC-OLIGONUCLEOTIDES ACTIVATED BY NUCLEASES” (priority 2020, published 2025).
Converted amounts (≈) assume the structure as drawn. Where two headings read alike, the source gives them in different places.

Columns and labels:
[1] = test system: S. aureus ATCC 1707 (MRSA); assay: Broth microdilution MIC and growth inhibition; type: cell-based, Staphylococcus aureus; settings: for MIC: 18 h, TOUCAN as NA equivalent
Summary of the method: (§1)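 Broth microdilution in cation-adjusted Mueller Hinton Broth, final inoculum 5×10^5 CFU/mL, with compounds serially diluted in PBS+/+ (PBS+/+ alone as untreated control). Incubation was at 37° C with OD600 read every 10 minutes for 18 hours. MIC was the lowest concentration without visible growth after 18 hours.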

[2] = test system: S. aureus ATCC 1717 (MRSA); assay: Broth microdilution MIC and growth inhibition; type: cell-based, Staphylococcus aureus; settings: for MIC: 18 h, TOUCAN as NA equivalent
Summary of the method: as §1

[3] = test system: S. aureus ATCC 1747 (MRSA); assay: Broth microdilution MIC and growth inhibition; type: cell-based, Staphylococcus aureus; settings: for MIC: 18 h, TOUCAN as NA equivalent
Summary of the method: as §1

[4] = test system: S. aureus ATCC 1761 (MRSA); assay: Broth microdilution MIC and growth inhibition; type: cell-based, Staphylococcus aureus; settings: for MIC: 18 h, TOUCAN as NA equivalent
Summary of the method: as §1

[5] = test system: S. aureus ATCC 1766 (MRSA); assay: Broth microdilution MIC and growth inhibition; type: cell-based, Staphylococcus aureus; settings: for MIC: 18 h, TOUCAN as NA equivalent; for growth inhibition, dose response: ATCC-1766 (MRSA), FIGS. 5e-f
Summary of the method: as §1

[6] = test system: S. aureus ATCC 1768 (MRSA); assay: Broth microdilution MIC and growth inhibition; type: cell-based, Staphylococcus aureus; settings: for MIC: 18 h, TOUCAN as NA equivalent
Summary of the method: as §1

[7] = test system: S. aureus ATCC 29213 (MSSA); assay: Broth microdilution MIC and growth inhibition; type: cell-based, Staphylococcus aureus
Summary of the method: as §1

[8] = test system: S. aureus ATCC 43300 (MRSA); assay: Broth microdilution MIC and growth inhibition; type: cell-based, Staphylococcus aureus; settings: for MIC: 18 h, TOUCAN as NA equivalent
Summary of the method: as §1

[9] = test system: S. aureus NCTC 12493 (MRSA); assay: Broth microdilution MIC and growth inhibition; type: cell-based, Staphylococcus aureus
Summary of the method: as §1

[10] = test system: S. epidermidis ATCC 35984; assay: Broth microdilution MIC and growth inhibition (control bacteria); type: cell-based, Staphylococcus epidermidis; settings: for MIC: 18 h, TOUCAN as NA equivalent
Source text: (§2) Bacteria strains. S. aureus NCTC 12493 (MRSA), S. aureus ATCC 29213 (MSSA), S. aureus ATCC 43300 (MRSA), S. aureus ATCC 1707 (MRSA), S. aureus ATCC 1717 (MRSA), S. aureus ATCC 1747 (MRSA), S. aureus ATCC 1761 (MRSA), S. aureus ATCC 1766 (MRSA), S. aureus ATCC 1768 (MRSA), S. epidermidis ATCC 35984, E. coli ATCC 25922, K. pneumoniae ATCC 13883, P. mirabilis ATCC 25933, S. enterica ATCC 14028 and P. aeruginosa ATCC 10145 strains were used in this study. Bacteria were initially inoculated onto tryptone soy agar with 5% defibrinated sheep blood (Thermo Fisher Scientific, Inc., Waltham, MA, USA) and incubated at 37° C. for 24 hours. Then, single colonies of each strain were transferred to tryptone soy broth (Thermo Fisher Scientific) for the nuclease activity assay or antimicrobial susceptibility testing, respectively.
(§3) Antimicrobial susceptibility testing. Minimal inhibitory concentrations (MIC) of all nucleoside analogues and TOUCANs against each bacteria strain were determined using broth microdilution method. A single colony obtained from overnight culture on tryptone soy agar with 5% defibrinated sheep blood was inoculated in cation-adjusted Mueller Hinton Broth and adjusted to 10^6 CFU/mL. TOUCANs were prepared in PBS+/+ (treatment) and serial dilutions were made in 96-well polystyrene round bottom microwell plates with 50 μL final volume for each concentration. PBS+/+ was used as untreated control. Next, 50 μL bacteria solutions were added to each well to a final bacteria concentration of 5×10^5 CFU/mL. Plates were incubated at 37° C. in Cytation 1 Cell Imaging Multimode Reader. Growth curves were obtained by measuring optical densities at 600 nm every 10 minutes for 18 hours using Cytation 1 Cell Imaging Multimode Reader. In addition, visual inspection of the plates was carried out after 18 hours and photographs were taken. MICs were defined as the lowest drug concentration in the microwell at which bacterial growth was not visible at the end of the incubation period. Besides MIC determination, specificity of TOUCAN 7mGe was also shown with subcultures on chromogenic media. For this purpose, 5 μL of different concentrations of each strain were inoculated onto CHROM agar Orientation Media (Becton Dickinson) and the bacterial growth of each bacteria strain tested was observed by naked eye after incubation at 37° C. for 24 hours. Finally, photographs of the chromogenic media were taken.

E. coli ATCC 25922 = assay: as above; type: cell-based, Escherichia coli; settings: for MIC: TOUCAN as NA equivalent
Source text: as §2, §3

K. pneumoniae ATCC 13883 = assay: as above; type: cell-based; settings: for MIC: TOUCAN as NA equivalent
Source text: as §2, §3

P. aeruginosa ATCC 10145 = assay: as above; type: cell-based; settings: for MIC: TOUCAN as NA equivalent
Source text: as §2, §3

S. enterica ATCC 14028 = assay: as above; type: cell-based; settings: for MIC: TOUCAN as NA equivalent
Source text: as §2, §3

P. mirabilis ATCC 25933 = assay: as above; type: cell-based, Proteus mirabilis; settings: for MIC: TOUCAN as NA equivalent
Source text: as §2, §3

[11] = Complete blood counts of infected/treated mice; settings: for percentage of neutrophils in blood: infected treated mice, after 24 hours, FIG. 7i; for BAS / BAS % / EO / EO % / HCT / HGB / LYM / LYM % / MCH / MCHC / MCV / MON / MON % / NE / NE % / PLT / RBC / RET / RET % / WBC: infected/treated mice, blood after 24 hours, AVG, n = 4; for change of red blood cells (RBCs), hematocrit and hemoglobin (acute blood toxicity): treated mice versus uninfected and placebo groups, FIG. 11
[12] = Staphylococcus aureus, read-out: MIC

## O=c1[nH]c(=O)n([C@H]2C[C@H](O)[C@@H](CO)O2)cc1F [Floxuridine, reference compound]
[1]; [12]
  MIC: 0.04 µg/mL
[2]; [12]
  MIC: 0.08 µg/mL
[3]; [12]
  MIC: 0.005 µg/mL
[4]; [12]
  MIC: 0.005 µg/mL
[5]; Staphylococcus aureus, S. aureus ATCC 1766 (MRSA), read-out: MIC
  MIC: 0.04 µg/mL
[6]; [12]
  MIC: 0.04 µg/mL
[7]; Staphylococcus aureus, S. aureus ATCC 29213 (MSSA), 18 h, TOUCAN as NA equivalent, read-out: MIC
  MIC: 0.08 µg/mL
[7]; Staphylococcus aureus, Table 1, S. aureus ATCC 29213, read-out: MIC
  MIC: 0.08 µg/mL (≈ 0.325 µM)
[7]; Table 1, S. aureus ATCC 29213, mean ± SD, n = 3
  % Growth inhibition: 93.1 ± 0.3%
[8]; [12]
  MIC: 0.04 µg/mL
[9]; Staphylococcus aureus, S. aureus NCTC 12493 (MRSA), 18 h, TOUCAN as NA equivalent, read-out: MIC
  MIC: 0.32 µg/mL
[9]; Staphylococcus aureus, Table 1, S. aureus NCTC 12493, read-out: MIC
  MIC: 0.32 µg/mL (≈ 1.3 µM)
[9]; Table 1, S. aureus NCTC 12493, mean ± SD, n = 3
  % Growth inhibition: 87.9 ± 0.4%
[10]; Staphylococcus epidermidis, ATCC35984, S. epidermidis ATCC 35984, read-out: MIC
  MIC: 0.04 µg/mL
E. coli ATCC 25922; Escherichia coli, ATCC25922, 18 h, read-out: MIC
  MIC: 20 µg/mL
K. pneumoniae ATCC 13883; Klebsiella pneumoniae, ATCC13883, 18 h, read-out: MIC
  MIC: 20 µg/mL
P. aeruginosa ATCC 10145; Pseudomonas aeruginosa, ATCC10145, 18 h, read-out: MIC
  MIC: > 40 µg/mL
S. enterica ATCC 14028; Salmonella enterica, ATCC14028, 18 h, read-out: MIC
  MIC: 20 µg/mL
P. mirabilis ATCC 25933; Proteus mirabilis, ATCC25933, 18 h, read-out: MIC
  MIC: 5 µg/mL
[11]
  percentage of neutrophils in blood: 30.3%
  BAS: 0.0 10^9/L
  BAS %: 0.5%
  EO: 0.0 10^9/L
  EO %: 1.0%
  HCT: 40.8%
  HGB: 12.8 g/dL
  LYM: 1.1 10^9/L
  LYM %: 48.9%
  MCH: 14.8 pg
  MCHC: 31.5 g/dL
  MCV: 47.4 fL
  MON: 0.3 10^9/L
  MON %: 13.5%
  NE: 0.7 10^9/L
  NE %: 36.1%
  PLT: 599.3 K/μL
  RBC: 8.6e+12 L⁻¹
  RET: 384.9 K/μL
  RET %: 4.5%
  WBC: 2.2 10^9/L
  change of red blood cells (RBCs), hematocrit and hemoglobin (acute blood toxicity): reduction

## mU-mU-mU-mU-T-T-Fx [TOUCAN 7mFx]
[1]
  TOUCAN MIC/NA MIC TOUCAN Efficacy Ratio (TER): 125
  MIC: 5 µg/mL
[1]; mean ± SD, n = 3
  TOUCAN % Growth inhibition: 94.6 ± 0.08%
[2]
  TOUCAN MIC/NA MIC TOUCAN Efficacy Ratio (TER): 125
  MIC: 10 µg/mL
[2]; mean ± SD, n = 3
  TOUCAN % Growth inhibition: 94.5 ± 0.04%
[3]
  TOUCAN MIC/NA MIC TOUCAN Efficacy Ratio (TER): 500
  MIC: 2.5 µg/mL
[3]; mean ± SD, n = 3
  TOUCAN % Growth inhibition: 92.8 ± 0.7%
[4]
  TOUCAN MIC/NA MIC TOUCAN Efficacy Ratio (TER): 500
  MIC: 2.5 µg/mL
[4]; mean ± SD, n = 3
  TOUCAN % Growth inhibition: 93.9 ± 0.05%
[5]; 0.31 μg/mL
  growth inhibition, dose response: partial inhibition
[5]; concentrations from 0.62 to 10 μg/mL
  growth inhibition, dose response: efficient inhibition
[5]; S. aureus ATCC 1766 (MRSA)
  TOUCAN MIC/NA MIC TOUCAN Efficacy Ratio (TER): 15.5
  MIC: 0.62 µg/mL
[5]; S. aureus ATCC 1766 (MRSA), mean ± SD, n = 3
  TOUCAN % Growth inhibition: 93.6 ± 0.1%
[6]
  TOUCAN MIC/NA MIC TOUCAN Efficacy Ratio (TER): 62.5
  MIC: 2.5 µg/mL
[6]; mean ± SD, n = 3
  TOUCAN % Growth inhibition: 93.2 ± 0.3%
[7]; S. aureus ATCC 29213 (MSSA)
  TOUCAN MIC/NA MIC TOUCAN Efficacy Ratio (TER): 250
[7]; S. aureus ATCC 29213 (MSSA), 18 h, TOUCAN as NA equivalent
  MIC: 20 µg/mL
[7]; S. aureus ATCC 29213 (MSSA), mean ± SD, n = 3
  TOUCAN % Growth inhibition: 92.3 ± 0.09%
[8]
  TOUCAN MIC/NA MIC TOUCAN Efficacy Ratio (TER): 1000
  MIC: 40 µg/mL
[8]; mean ± SD, n = 3
  TOUCAN % Growth inhibition: 92.8 ± 0.7%
[9]; S. aureus NCTC 12493 (MRSA)
  TOUCAN MIC/NA MIC TOUCAN Efficacy Ratio (TER): 125
[9]; S. aureus NCTC 12493 (MRSA), 18 h, TOUCAN as NA equivalent
  MIC: 40 µg/mL
[9]; S. aureus NCTC 12493 (MRSA), mean ± SD, n = 3
  TOUCAN % Growth inhibition: 91.5 ± 0.00%
[10]; S. epidermidis ATCC 35984
  MIC: >40 µg/mL
[10]; S. epidermidis ATCC 35984, mean ± SD, n = 3
  TOUCAN % Growth inhibition: 7.4 ± 4.0%
[10]; S. epidermidis, all concentrations tested, FIG. 5
  growth inhibition, dose response: no growth inhibition
E. coli ATCC 25922; 18 h
  MIC: >40 µg/mL
E. coli ATCC 25922; mean ± SD, n = 3
  TOUCAN % Growth inhibition: 0 ± 0.00%
K. pneumoniae ATCC 13883; 18 h
  MIC: >40 µg/mL
K. pneumoniae ATCC 13883; mean ± SD, n = 3
  TOUCAN % Growth inhibition: 0 ± 0.00%
P. aeruginosa ATCC 10145; 18 h
  MIC: >40 µg/mL
P. aeruginosa ATCC 10145; mean ± SD, n = 3
  TOUCAN % Growth inhibition: 7.2 ± 1.4%
S. enterica ATCC 14028; 18 h
  MIC: >40 µg/mL
S. enterica ATCC 14028; mean ± SD, n = 3
  TOUCAN % Growth inhibition: 10.8 ± 2.1%
P. mirabilis ATCC 25933; 18 h
  MIC: >40 µg/mL
P. mirabilis ATCC 25933; mean ± SD, n = 3
  TOUCAN % Growth inhibition: 45.5 ± 0.4%
[11]
  percentage of neutrophils in blood: 13.8%
  BAS: 0.0 10^9/L
  BAS %: 0.3%
  EO: 0.0 10^9/L
  EO %: 1.3%
  HCT: 44.5%
  HGB: 14.0 g/dL
  LYM: 1.6 10^9/L
  LYM %: 68.6%
  MCH: 15.0 pg
  MCHC: 31.4 g/dL
  MCV: 47.9 fL
  MON: 0.4 10^9/L
  MON %: 15.7%
  NE: 0.3 10^9/L
  NE %: 14.1%
  PLT: 630.0 K/μL
  RBC: 9.3e+12 L⁻¹
  RET: 257.7 K/μL
  RET %: 2.8%
  WBC: 2.4 10^9/L
  change of red blood cells (RBCs), hematocrit and hemoglobin (acute blood toxicity): no difference
